Structures can show the parent of a compound that is named as a salt.
Assays:
AII receptor [1] = biological target: T1, AII receptor (Oryctolagus cuniculus, UniProt P34976); assay: in vitro: antagonistic effect on AII contraction of an excised rabbit aorta (spiral strip); assay type: cell-based; details: for Kb: negative log of concentration required to shift AII dose-response curve to two times higher concentration, read-out: in vitro (pA2 value) (converted); for IC50: negative log of concentration required to inhibit 50% of the maximum AII contraction, read-out: in vitro (pD2 ' value) (converted)
T1 construct: A portion of rabbit aorta was excised to prepare a spiral strip specimen; from tissue; host or cells: excised rabbit aorta, spiral strip
T1 sequence (P34976 1-359): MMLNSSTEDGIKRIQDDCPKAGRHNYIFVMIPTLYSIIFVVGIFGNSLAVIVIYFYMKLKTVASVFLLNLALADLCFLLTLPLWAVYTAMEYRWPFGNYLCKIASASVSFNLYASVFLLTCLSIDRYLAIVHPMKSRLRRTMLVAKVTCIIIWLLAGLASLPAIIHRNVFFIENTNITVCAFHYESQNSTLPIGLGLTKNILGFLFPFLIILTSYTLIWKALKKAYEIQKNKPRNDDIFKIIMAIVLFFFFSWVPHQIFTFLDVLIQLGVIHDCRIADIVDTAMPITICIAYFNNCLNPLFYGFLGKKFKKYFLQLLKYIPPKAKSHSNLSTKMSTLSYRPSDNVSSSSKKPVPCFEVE
Procedure: The AII receptor-blocking activity of the compound of the present invention was measured based on its antagonistic effect (in vitro) on AII contraction of an excised rabbit aorta and its inhibitory effect (in vivo) on AII-caused pressor reaction in a spinal cord-broken rat.
A portion of rabbit aorta was excised to prepare a spiral strip specimen which was subsequently hung in Krebs-Hensseleit solution. This spiral strip specimen causes a dose-dependent contraction when AII is added to the Krebs-Hensseleit solution. Since a drug having AII receptor-blocking activity causes shifting of the dose-response curve of the AII-based contraction to the high concentration side or reduces maximum contraction by AII, a shifted width of the dose-response curve before and after the addition of each test drug or a maximum contraction inhibiting ratio was calculated.

AII receptor [2] = assay: in vivo: inhibitory effect on AII-caused pressor reaction in a spinal cord-broken rat; details: dose which decreases 30 mm Hg of blood pressure after AII administration (100 ng/kg/min continuous iv)
Procedure: The AII receptor-blocking activity of the compound of the present invention was measured based on its antagonistic effect (in vitro) on AII contraction of an excised rabbit aorta and its inhibitory effect (in vivo) on AII-caused pressor reaction in a spinal cord-broken rat. In vivo test: An in vivo test was carried out by inserting cannulae into an aorta and a vein of a spinal cord-broken rat under artificial respiration. […] Since a drug having AII receptor-blocking activity inhibits the AII-caused continuous blood pressure increase in a dose-dependent manner, the AII antagonistic function of the test drug was examined based on the decreasing width of blood pressure after administration of the test drug.

Row | Structure (SMILES) | Kb (AII receptor [1]) | in vivo (IC30 mmHg (mg/kg, iv)) (AII receptor [2]) | IC50 (AII receptor [1])
1 | CCOC(=O)c1c(CC)c2nc(CC)nn2n1Cc1ccc(-c2ccccc2-c2nnn[nH]2)cc1 [Example 101, ethyl 2,7-diethyl-5-[[2'-(tetrazol-5-yl)biphenyl-4-yl]methyl]-5H-pyrazolo[1,5-b][1,2,4] triazole-6-carboxylate] | 0.562 nM | – | –
2 | CCc1nc2c(CC)c(COC)n(Cc3ccc(-c4ccccc4-c4nnn[nH]4)cc3)n2n1 [Example 95, 2,7-diethyl-6-methoxymethyl-5-[[2'-(tetrazol-5-yl)biphenyl-4-yl]methyl]-5H-pyrazolo[1,5-b][1,2,4]triazole] | 1.41 nM | 0.06 mg/kg | –
3 | CCc1nc2c(CC)c(C(=O)O)n(Cc3ccc(-c4ccccc4-c4nn[nH]n4)cc3)n2n1 [Example 99, 2,7-diethyl-5-[[2'-(tetrazol-5-yl)biphenyl-4-yl]methyl]-5H-pyrazolo[1,5-b][1,2,4]'triazole-6-carbonic acid] | – | – | 0.49 nM
4 | CCc1nc2c(CC)c(C(=O)OC)n(Cc3ccc(-c4ccccc4-c4nn[nH]n4)cc3)n2n1 [Example 102, methyl 2,7-diethyl-5-[[2'-(tetrazol-5-yl)biphenyl-4-yl]methyl]-5H-pyrazolo[1,5-b][1,2,4]triazole-6-carboxylate sodium salt] | 0.724 nM | – | –
5 | CCOC(=O)OC(C)OC(=O)c1c(CC)c2nc(CC)nn2n1Cc1ccc(-c2ccccc2-c2nnn[nH]2)cc1 (stereo not drawn) [Example 105, 1-ethoxycarbonyloxyethyl 2,7-diethyl-5-[[2'-(tetrazol-5-yl)biphenyl-4-yl]methyl]-5H-pyrazolo[1,5-b][1,2,4]triazole-6-carboxylate] | – | – | 0.933 nM
6 | CCc1nc2c(CC)c(CO)n(Cc3ccc(-c4ccccc4-c4nn[nH]n4)cc3)n2n1 [Example 98] | 0.955 nM | 0.02 mg/kg | –
7 | CCc1nc2c(CC)c(C=O)n(Cc3ccc(-c4ccccc4-c4nn[nH]n4)cc3)n2n1 [Example 96, 2,7-diethyl-5-[[2'-(tetrazol-5-yl)biphenyl-4-yl]methyl]-5H-pyrazolo[1,5-b][1,2,4]triazole-6-carboxyaldehyde] | 0.692 nM | 0.02 mg/kg | –
8 | CCc1nc2c(CC)cn(Cc3ccc(-c4ccccc4-c4nnn[nH]4)cc3)n2n1 [Example 52, 2,7-diethyl-5-[[2'-(tetrazol-5-yl)biphenyl-4-yl]methyl]-5H-pyrazolo[1,5-b][1,2,4]triazole] | 2.24 nM | 0.025 mg/kg | –
9 | CCc1nc2c(CC)cn(Cc3ccc(-c4ccccc4-c4nn[nH]n4)cc3)n2n1 [Example 100, 2,7-diethyl-5-[[2'-(tetrazol-5-yl)biphenyl-4-yl]methyl]-5H-pyrazolo[1,5-b][1,2,4]triazole potassium salt] | 1.55 nM | – | –
10 | CCc1nc2c(C(C)C)cn(Cc3ccc(-c4ccccc4-c4nnn[nH]4)cc3)n2n1 [Example 57, 2-ethyl-7-isopropyl-5-[[2'-(tetrazol-5-yl)biphenyl-4-yl]methyl]-5H-pyrazolo[1,5-b][1,2,4]triazole] | 3.02 nM | 0.04 mg/kg | –
11 | CCc1cn(Cc2ccc(-c3ccccc3-c3nnn[nH]3)cc2)n2nc(C)nc12 [Example 53, 7-ethyl-2-methyl-5-[[2'-(tetrazol-5-yl)biphenyl-4-yl]methyl]-5H-pyrazolo[1,5-b][1,2,4]triazole] | 3.16 nM | 0.01 mg/kg | –
12 | CCCCc1nc(Cl)c(CO)n1Cc1ccc(-c2ccccc2-c2nn[nH]n2)cc1 [Dup 753, reference compound] | – | 0.1 mg/kg | –

— patent US5475114A, “Pyrazolotriazole derivatives” (Yamanouchi Pharmaceutical Co., Ltd., priority 1991, dated 1995)
